No end group written: not given here.
Tested on: intrinsic pathway
Assay: activated partial thromboplastin time (APTT) screening coagulation assay
Format: biochemical
Conditions: phage expressing the peptide tested; APTT is a standard screening marker of the activity of the intrinsic pathway
Source text: While in vitro or animal testing are not acceptable tools for establishing the safety thus usefulness of drugs, such as anticoagulants, screening compounds for specificity towards factor XI, thus potential utility in the clinic, is an necessary intermediate step in practicing this invention. In such an effort, several FXI-specific peptides have been created using standard phage display technology. […] One example of such a phage is given here. Amino acid sequencing of the peptide expressed by this phage yields Gln-Lys-Met-Gln-His-Gly-Ile-Trp-Asn-Arg-Thr-Ala using standard technology. The phage expressing the peptide is then tested in screening coagulation assays, such as activated partial thromboplastin time (APTT) and prothrombin time (PT). […] This peptide, and other inhibitory compounds with FXI specificity, such as Gln-Gln-Val-Ala-Asn-Trp-Ser-Met-Ser-Pro-Ala, are considered only as examples of intermediate steps in identifying and preparing compounds of this invention that can exclusively reduce FXI activity. Other methods of screening exist.

QKMQHGIWNRTA [FXI-specific peptide from phage display, tested as the phage expressing it]
prolongation of APTT: significant prolongation

— US20080219998A1, “Anti-Thrombotic Agents” (priority 2001, published 2008)
